Values joined by “and” are separate entries in the source; they are usually repeats but may differ in a detail not shown here. Equal values may be shown once.
Columns and labels:
[1] = target: full length human FXR protein (Homo sapiens (Human), UniProt Q96RI1); assay: FXR cellular assay (FXR-SRCP β-gal enzyme fragment complementation in CHO-K1 cells, chemiluminescence); format: cell-based; settings: CHO-K1 cells with SRCP-EA and ProLink-labeled FXR, 0-10 micromolar compound, 37° C. for 6h, read-out: EC50 FXR-cell Luminescence/
Source text: A cell based FXR assay was used to detect protein-protein interactions between an activated (ligand-bound), full length human FXR protein and a nuclear fusion protein containing a Steroid Receptor Coactivator Peptide (SCRP) domain. In this approach, two weakly complementing fragments of the 3-gal enzyme were expressed within stably transfected Chinese Hamster Ovary (CHO-K1) cells. The complementing fragments of the 3-gal enzyme (ProLink, PK; and Enzyme Acceptor, EA) were translationally fused to the C-terminus of a full-length FXR and to the SRCP, respectively. Complementation was driven by the protein-protein interaction between SRCP-EA and a ProLink-labeled FXR. Upon FXR-SRCP binding, the two fragments of 3-gal complement, forming a functional enzyme capable of hydrolyzing a substrate molecule and generating a chemiluminescent signal.
CHO-K1 cells containing SRCP-EA and ProLink-labeled FXR were plated in 384-well microplates and incubated at 37° C. overnight. A positive control FXR agonist, GW4064 (0-10 micromolar), or test compounds (0-10 micromolar) were added to plated cells and incubated at 37° C. for 6h (final DMSO vehicle concentration was 1%). The assay signal was generated by addition of 50% (v/v) detection reagent (19:5:1, cell assay buffer: substrate reagent 1: substrate reagent 2, DiscoverX) followed by incubation for 1h at ambient room temperature. Microplates were analyzed using an Envision reader (PerkinElmer Life and Analytical Sciences, Signal=chemiluminescence).

[2] = target: ligand binding domain (LBD) of recombinant human FXR (Homo sapiens (Human), UniProt Q96RI1); assay: FXR cell free coactivator (SRC-1) recruitment assay, TR-FRET; settings: FXR LBD (amino acids 244-476) with labeled SRC-1 domain, 25° C. for 60 minutes, activity relative to CDCA maximum; read-out: EC50 FXR- Biochemical TR-FRET/μM
Protocol: A cell free coactivator recruitment assay was developed for FXR, to measure the functional potency of novel FXR compounds. In this assay, novel FXR compounds were bound to the ligand binding domain (LBD) of recombinant human FXR. The ability of this liganded homodimeric complex to recruit the co-activator protein steroid receptor coactivator 1 (SRC-1) was measured using Time-Resolved Fluorescence Resonance Energy Transfer (TR-FRET).
The LBD of human FXR (amino acids 244-476) was cloned into an expression vector for protein expression in SF9 insect cells. Purified FXR LBD was incubated in TR-FRET coregulator buffer G (Eurofins) with test compounds (0-10 micromolar) and a labeled nuclear receptor interaction domain of SRC-1 at 25° C. for 60 minutes (final DMSO vehicle concentration was 1.2%). Assays were analyzed using an Envision TR-FRET reader (PerkinElmer Life and Analytical Sciences). Compound activity at each concentration was defined as a percentage of the maximal activity of the natural FXR ligand agonist chenodeoxycholic acid (CDCA) generating a dose response curve.

ligand binding domain (LBD) of recombinant human FXR, sequence (Q96RI1 254-486): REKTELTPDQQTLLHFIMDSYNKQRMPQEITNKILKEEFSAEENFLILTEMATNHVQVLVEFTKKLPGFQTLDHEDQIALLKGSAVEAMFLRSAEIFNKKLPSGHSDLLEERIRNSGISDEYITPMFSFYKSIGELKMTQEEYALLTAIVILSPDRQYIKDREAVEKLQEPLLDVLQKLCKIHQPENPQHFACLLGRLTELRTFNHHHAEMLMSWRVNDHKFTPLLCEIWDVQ
ligand binding domain (LBD) of recombinant human FXR, sequence (Q15788 whole entry partner, the tested form may be a part): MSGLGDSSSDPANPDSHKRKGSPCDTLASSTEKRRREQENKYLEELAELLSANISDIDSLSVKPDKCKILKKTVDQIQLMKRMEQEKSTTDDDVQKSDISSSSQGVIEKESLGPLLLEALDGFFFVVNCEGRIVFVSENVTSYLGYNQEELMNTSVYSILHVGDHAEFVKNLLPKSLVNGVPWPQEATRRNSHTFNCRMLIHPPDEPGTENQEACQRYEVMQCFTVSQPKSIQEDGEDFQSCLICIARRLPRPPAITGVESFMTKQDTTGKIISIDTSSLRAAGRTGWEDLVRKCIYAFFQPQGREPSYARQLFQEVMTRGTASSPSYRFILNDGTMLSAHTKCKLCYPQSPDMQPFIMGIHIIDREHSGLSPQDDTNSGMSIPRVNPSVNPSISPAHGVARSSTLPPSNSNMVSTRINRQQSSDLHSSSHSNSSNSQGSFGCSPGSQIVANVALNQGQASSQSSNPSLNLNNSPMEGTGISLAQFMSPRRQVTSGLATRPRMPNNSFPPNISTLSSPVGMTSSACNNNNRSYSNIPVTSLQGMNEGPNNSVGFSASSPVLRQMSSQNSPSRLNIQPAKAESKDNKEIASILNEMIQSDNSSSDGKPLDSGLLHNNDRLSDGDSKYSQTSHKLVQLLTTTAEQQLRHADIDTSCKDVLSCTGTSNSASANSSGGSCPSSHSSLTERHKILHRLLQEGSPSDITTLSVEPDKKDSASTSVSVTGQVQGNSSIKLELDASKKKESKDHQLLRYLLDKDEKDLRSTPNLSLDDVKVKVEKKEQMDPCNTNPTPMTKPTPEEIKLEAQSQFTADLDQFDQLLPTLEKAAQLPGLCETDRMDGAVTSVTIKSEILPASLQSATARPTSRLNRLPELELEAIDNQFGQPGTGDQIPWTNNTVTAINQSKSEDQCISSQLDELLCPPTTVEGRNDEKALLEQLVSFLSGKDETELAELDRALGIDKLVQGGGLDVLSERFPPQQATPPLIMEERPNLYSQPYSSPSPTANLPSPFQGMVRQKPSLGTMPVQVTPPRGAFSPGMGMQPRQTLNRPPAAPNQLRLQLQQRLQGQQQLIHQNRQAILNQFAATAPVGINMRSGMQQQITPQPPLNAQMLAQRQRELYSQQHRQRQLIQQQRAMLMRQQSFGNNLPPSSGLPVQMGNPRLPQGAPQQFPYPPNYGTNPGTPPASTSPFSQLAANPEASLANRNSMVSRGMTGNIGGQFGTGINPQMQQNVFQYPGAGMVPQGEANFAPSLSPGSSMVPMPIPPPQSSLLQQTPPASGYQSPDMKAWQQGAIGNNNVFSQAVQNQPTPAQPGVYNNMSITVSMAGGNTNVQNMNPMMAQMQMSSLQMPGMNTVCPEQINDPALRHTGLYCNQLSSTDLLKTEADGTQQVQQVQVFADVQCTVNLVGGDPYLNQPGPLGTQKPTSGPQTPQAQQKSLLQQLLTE
full length human FXR protein, sequence (Q96RI1 whole entry, the tested form may be a part): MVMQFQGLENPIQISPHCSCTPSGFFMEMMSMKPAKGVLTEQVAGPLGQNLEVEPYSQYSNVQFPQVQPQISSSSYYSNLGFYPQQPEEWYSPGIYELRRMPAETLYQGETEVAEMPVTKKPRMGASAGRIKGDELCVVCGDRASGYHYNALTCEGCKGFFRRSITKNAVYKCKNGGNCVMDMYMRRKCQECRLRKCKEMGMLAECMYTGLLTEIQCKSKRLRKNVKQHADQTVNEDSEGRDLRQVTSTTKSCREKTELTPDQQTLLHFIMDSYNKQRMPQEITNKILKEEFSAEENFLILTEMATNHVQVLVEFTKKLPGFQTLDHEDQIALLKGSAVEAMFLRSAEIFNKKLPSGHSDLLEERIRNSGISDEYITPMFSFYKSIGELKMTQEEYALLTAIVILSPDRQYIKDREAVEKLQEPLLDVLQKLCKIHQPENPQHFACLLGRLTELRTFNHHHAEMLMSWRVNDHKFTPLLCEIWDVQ

| EC50 [1] | EC50 [2] | SMILES |
| --- | --- | --- |
| 1.13 µM | 3.18 µM | O=C(c1noc(=O)[nH]1)N1CCC(OCc2c(-c3c(Cl)cccc3Cl)noc2C2CC2)CC1 [Example 1, 3-(4-((5-cyclopropyl-3-(2,6-dichlorophenyl)isoxazol-4-yl)methoxy)piperidine-1-carbonyl)-1,2,4-oxadiazol-5(4H)-one] |
| 0.097 µM and 0.0498 µM | 0.0036 µM and 0.0029 µM | O=c1[nH]c(-c2ccc(N3CCC(OCc4c(-c5c(Cl)cccc5Cl)noc4C4CC4)CC3)cc2)no1 [Example 3, 3-(4-(4-((5-cyclopropyl-3-(2,6-dichlorophenyl)isoxazol-4-yl)methoxy)piperidin-1-yl)phenyl)-1,2,4-oxadiazol-5(4H)-one] |
| 1.47 µM | 0.22 µM | O=c1cn[nH]c(=O)n1-c1ccc(N2CCC(OCc3c(-c4c(Cl)cccc4Cl)noc3C3CC3)CC2)nc1 [Example 4, 4-(6-(4-((5-cyclopropyl-3-(2,6-dichlorophenyl)isoxazol-4-yl)methoxy)piperidin-1-yl)pyridin-3-yl)-1,2,4-triazine-3,5(2H,4H)-dione] |
| 2.53 µM | 0.031 µM | O=c1[nH]c(-c2cnc(N3CCC(OCc4c(-c5c(Cl)cccc5Cl)noc4C4CC4)CC3)nc2)no1 [Example 5, 3-(2-(4-((5-cyclopropyl-3-(2,6-dichlorophenyl)isoxazol-4-yl)methoxy)piperidin-1-yl)pyrimidin-5-yl)-1,2,4-oxadiazol-5(4H)-one] |
| 0.372 µM | 0.0044 µM | O=c1[nH]c(-c2ccc(N3CCC(OCc4c(-c5c(Cl)cccc5Cl)noc4C4CC4)CC3)nc2)no1 [Example 6, 3-(6-(4-((5-cyclopropyl-3-(2,6-dichlorophenyl)isoxazol-4-yl)methoxy)piperidin-1-yl)pyridin-3-yl)-1,2,4-oxadiazol-5(4H)-one] |
| 1.23 µM | 0.105 µM | O=c1[nH]c(-c2cccc(N3CCC(OCc4c(-c5c(Cl)cccc5Cl)noc4C4CC4)CC3)c2)no1 [Example 7, 3-(3-(4-((5-cyclopropyl-3-(2,6-dichlorophenyl)isoxazol-4-yl)methoxy)piperidin-1-yl)phenyl)-1,2,4-oxadiazol-5(4H)-one] |
| 0.382 µM | – | O=c1[nH]c(-c2ccc(N3CCC(OCc4c(-c5ccccc5OC(F)(F)F)noc4C4CC4)CC3)nc2)no1 [Example 75, 3-(6-(4-((5-cyclopropyl-3-(2-(trifluoromethoxy)phenyl)isoxazol-4-yl)methoxy)piperidin-1-yl)pyridin-3-yl)-1,2,4-oxadiazol-5(4H)-one] |
| 0.196 µM | – | C[C@@H]1C[C@H](OCc2c(-c3ccccc3OC(F)(F)F)noc2C2CC2)CCN1c1ccc(-c2noc(=O)[nH]2)cn1 [Example 76, 3-(6-((2R,4R)-4-((5-cyclopropyl-3-(2-(trifluoromethoxy)phenyl)isoxazol-4-yl)methoxy)-2-methylpiperidin-1-yl)pyridin-3-yl)-1,2,4-oxadiazol-5(4H)-one] |
| 0.0695 µM | – | O=c1[nH]c(-c2ccc(N3[C@@H]4CC[C@H]3C[C@@H](OCc3c(-c5ccccc5Cl)noc3C3CC3)C4)nc2)no1 [Example 77, 3-(6-((1R,3r,5S)-3-((3-(2-chlorophenyl)-5-cyclopropylisoxazol-4-yl)methoxy)-8-azabicyclo[3.2.1]octan-8-yl)pyridin-3-yl)-1,2,4-oxadiazol-5(4H)-one] |
| 0.154 µM | – | O=c1[nH]c(-c2ccc(N3[C@@H]4CC[C@H]3C[C@@H](OCc3c(-c5c(F)cccc5F)noc3C3CC3)C4)nc2)no1 [Example 78, 3-(6-((1R,3r,5S)-3-((5-cyclopropyl-3-(2,6-difluorophenyl)isoxazol-4-yl)methoxy)-8-azabicyclo[3.2.1]octan-8-yl)pyridin-3-yl)-1,2,4-oxadiazol-5(4H)-one] |
| 0.312 µM | – | O=c1[nH]c(-c2ccc(N3CC[C@@H](OCc4c(-c5ccccc5OC(F)(F)F)noc4C4CC4)[C@H](F)C3)cc2)no1 [Example 79, 3-(4-((3R,4R)-4-((5-cyclopropyl-3-(2-(trifluoromethoxy)phenyl)isoxazol-4-yl)methoxy)-3-fluoropiperidin-1-yl)phenyl)-1,2,4-oxadiazol-5(4H)-one] |
| 0.641 µM | – | O=c1[nH]c(-c2ccc(N3CC[C@H](OCc4c(-c5ccccc5OC(F)(F)F)noc4C4CC4)[C@@H](F)C3)cc2)no1 [Example 80, 3-(4-((3S,4S)-4-((5-cyclopropyl-3-(2-(trifluoromethoxy)phenyl)isoxazol-4-yl)methoxy)-3-fluoropiperidin-1-yl)phenyl)-1,2,4-oxadiazol-5(4H)-one] |
| 0.175 µM | – | O=c1cc(-c2ccc(N3[C@@H]4CC[C@H]3C[C@@H](OCc3c(-c5ccccc5OC(F)(F)F)noc3C3CC3)C4)cc2)o[nH]1 [Example 81, 5-(4-((1R,3r,5S)-3-((5-cyclopropyl-3-(2-(trifluoromethoxy)phenyl)isoxazol-4-yl)methoxy)-8-azabicyclo[3.2.1]octan-8-yl)phenyl)isoxazol-3(2H)-one] |
| 1.83 µM | – | N#Cc1nn(-c2ccc(N3CCC(OCc4c(-c5c(Cl)cccc5Cl)noc4C4CC4)CC3)nc2)c(=O)[nH]c1=O [Example 82, 2-(6-(4-((5-cyclopropyl-3-(2,6-dichlorophenyl)isoxazol-4-yl)methoxy)piperidin-1-yl)pyridin-3-yl)-3,5-dioxo-2,3,4,5-tetrahydro-1,2,4-triazine-6-carbonitrile] |
| 5.25 µM | – | N#Cc1n[nH]c(=O)n(-c2ccc(N3CCC(OCc4c(-c5c(Cl)cccc5Cl)noc4C4CC4)CC3)nc2)c1=O [Example 83, 4-(6-(4-((5-cyclopropyl-3-(2,6-dichlorophenyl)isoxazol-4-yl)methoxy)piperidin-1-yl)pyridin-3-yl)-3,5-dioxo-2,3,4,5-tetrahydro-1,2,4-triazine-6-carbonitrile] |
| 1.53 µM | – | O=c1cc(-c2ccc(N3CCC(OCc4c(-c5ccccc5OC(F)(F)F)noc4C4CC4)C(F)(F)C3)cc2)o[nH]1 (centres unmarked) [Example 84, 5-(4-(4-((5-cyclopropyl-3-(2-(trifluoromethoxy)phenyl)isoxazol-4-yl)methoxy)-3,3-difluoropiperidin-1-yl)phenyl)isoxazol-3(2H)-one] |
| 0.755 µM | – | N#Cc1nn(-c2ccc(N3CCC(OCc4c(-c5ccccc5OC(F)(F)F)noc4C4CC4)CC3)cc2)c(=O)[nH]c1=O [Example 85, 2-(4-(4-((5-cyclopropyl-3-(2-(trifluoromethoxy)phenyl)isoxazol-4-yl)methoxy)piperidin-1-yl)phenyl)-3,5-dioxo-2,3,4,5-tetrahydro-1,2,4-triazine-6-carbonitrile] |
| 22.9 µM | – | N#Cc1n[nH]c(=O)n(-c2ccc(N3CCC(OCc4c(-c5ccccc5OC(F)(F)F)noc4C4CC4)CC3)cc2)c1=O [Example 86, 4-(4-(4-((5-cyclopropyl-3-(2-(trifluoromethoxy)phenyl)isoxazol-4-yl)methoxy)piperidin-1-yl)phenyl)-3,5-dioxo-2,3,4,5-tetrahydro-1,2,4-triazine-6-carbonitrile] |
| 0.261 µM | – | O=c1cc(-c2ccc(N3CCC(OCc4c(-c5c(Cl)cccc5Cl)noc4C4CC4)C(F)(F)C3)cc2)o[nH]1 (centres unmarked) [Example 87, 5-(4-(4-((5-cyclopropyl-3-(2,6-dichlorophenyl)isoxazol-4-yl)methoxy)-3,3-difluoropiperidin-1-yl)phenyl)isoxazol-3(2H)-one] |
| 0.46 µM | – | O=c1cnn(-c2ccc(N3[C@@H]4CC[C@H]3C[C@@H](OCc3c(-c5ccccc5OC(F)(F)F)noc3C3CC3)C4)cc2)c(=O)[nH]1 [Example 88, 2-(4-((1R,3r,5S)-3-((5-cyclopropyl-3-(2-(trifluoromethoxy)phenyl)isoxazol-4-yl)methoxy)-8-azabicyclo[3.2.1]octan-8-yl)phenyl)-1,2,4-triazine-3,5(2H,4H)-dione] |
| 1 µM | – | N#Cc1nn(-c2ccc(N3[C@@H]4CC[C@H]3C[C@@H](OCc3c(-c5ccccc5OC(F)(F)F)noc3C3CC3)C4)cc2)c(=O)[nH]c1=O [Example 89, 2-(4-((1R,3r,5S)-3-((5-cyclopropyl-3-(2-(trifluoromethoxy)phenyl)isoxazol-4-yl)methoxy)-8-azabicyclo[3.2.1]octan-8-yl)phenyl)-3,5-dioxo-2,3,4,5-tetrahydro-1,2,4-triazine-6-carbonitrile] |

| SMILES | EC50 [1] | EC50 [2] |
| --- | --- | --- |
| Clc1cccc(Cl)c1-c1noc(C2CC2)c1COC1CCN(c2ccc(C3=NN3)cc2)CC1 [Example 2, 4-(((1-(4-(1H-diazirin-3-yl)phenyl)piperidin-4-yl)oxy)methyl)-5-cyclopropyl-3-(2,6-dichlorophenyl)isoxazole] | 0.691 µM | 2.89 µM |
